Data: PubChem BioAssay (NCI)
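Following 48 hours of exposure in 96-well plates, responses at five concentrations were used to interpolate endpoints linearly. GI50: concentration for 50% inhibition of growth. TGI: concentration producing complete growth inhibition.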

What was measured:
Test in all cases: NCI tumour cell line growth inhibition, 48 h
786-0 renal = test system: 786-0 renal
A498 renal = test system: A498 renal
A549 NSCLC = test system: A549 NSCLC
ACHN renal = test system: ACHN renal
BT-549 breast = test system: BT-549 breast
CAKI-1 renal = test system: CAKI-1 renal
CCRF-CEM leukemia = test system: CCRF-CEM leukemia
COLO 205 colon = test system: COLO 205 colon
DU-145 prostate = test system: DU-145 prostate
EKVX NSCLC = test system: EKVX NSCLC
HCT-116 colon = test system: HCT-116 colon
HCT-15 colon = test system: HCT-15 colon
HL-60(TB) leukemia = test system: HL-60(TB) leukemia
HOP-62 NSCLC = test system: HOP-62 NSCLC
HOP-92 NSCLC = test system: HOP-92 NSCLC
HS 578T breast = test system: HS 578T breast
HT29 colon = test system: HT29 colon
IGROV1 ovarian = test system: IGROV1 ovarian
K-562 leukemia = test system: K-562 leukemia
KM12 colon = test system: KM12 colon
LOX IMVI melanoma = test system: LOX IMVI melanoma
M14 melanoma = test system: M14 melanoma
MALME-3M melanoma = test system: MALME-3M melanoma
MCF7 breast = test system: MCF7 breast
MDA-MB-231 breast = test system: MDA-MB-231 breast
MDA-MB-435 = test system: MDA-MB-435
MOLT-4 leukemia = test system: MOLT-4 leukemia
NCI-H226 lung = test system: NCI-H226 lung
NCI-H23 lung = test system: NCI-H23 lung
NCI-H460 lung = test system: NCI-H460 lung
NCI-H522 lung = test system: NCI-H522 lung
NCI/ADR-RES ovarian = test system: NCI/ADR-RES ovarian
OVCAR-3 ovarian = test system: OVCAR-3 ovarian
OVCAR-4 ovarian = test system: OVCAR-4 ovarian
OVCAR-5 ovarian = test system: OVCAR-5 ovarian
OVCAR-8 ovarian = test system: OVCAR-8 ovarian
RPMI-8226 leukemia = test system: RPMI-8226 leukemia
RXF 393 renal = test system: RXF 393 renal
SF-268 CNS = test system: SF-268 CNS
SF-295 CNS = test system: SF-295 CNS
SF-539 CNS = test system: SF-539 CNS
SK-MEL-2 melanoma = test system: SK-MEL-2 melanoma
SK-MEL-28 melanoma = test system: SK-MEL-28 melanoma
SK-MEL-5 melanoma = test system: SK-MEL-5 melanoma
SK-OV-3 ovarian = test system: SK-OV-3 ovarian
SN12C renal = test system: SN12C renal
SNB-19 CNS = test system: SNB-19 CNS
SNB-75 CNS = test system: SNB-75 CNS
SR leukemia = test system: SR leukemia
SW-620 colon = test system: SW-620 colon
T-47D breast = test system: T-47D breast
TK-10 renal = test system: TK-10 renal
U251 CNS = test system: U251 CNS
UACC-257 melanoma = test system: UACC-257 melanoma
UACC-62 melanoma = test system: UACC-62 melanoma
UO-31 renal = test system: UO-31 renal

`O=C1c2ccccc2-c2c1c1c(NCCCO)nc3ccccc3c1n2Cc1ccccc1` gave a GI50 (786-0 renal) of 21.3 µM, a TGI (786-0 renal) of 43.7 µM and a GI50 (A498 renal) of 21.6 µM. For the same molecule, the TGI (A498 renal) was 48.6 µM, the GI50 (A549 NSCLC) was 29.7 µM and the TGI (A549 NSCLC) was 75.5 µM. For the same molecule, the GI50 (ACHN renal) was 21.4 µM, the TGI (ACHN renal) was 59.4 µM and the GI50 (BT-549 breast) was 21.1 µM. For the same molecule, the TGI (BT-549 breast) was 43.7 µM, the GI50 (CAKI-1 renal) was 18.6 µM and the TGI (CAKI-1 renal) was 38.4 µM. It also gave a GI50 (CCRF-CEM leukemia) of 17.6 µM, a TGI (CCRF-CEM leukemia) of 45.9 µM and a GI50 (COLO 205 colon) of 34.2 µM. The TGI (COLO 205 colon) was > 100 µM, the GI50 (DU-145 prostate) was 16.3 µM and the TGI (DU-145 prostate) was 34.1 µM. The GI50 (EKVX NSCLC) was 27.5 µM, the TGI (EKVX NSCLC) was 64.4 µM and the GI50 (HCT-116 colon) was 15.8 µM. For the same molecule, the TGI (HCT-116 colon) was 35.1 µM, the GI50 (HCT-15 colon) was 37.5 µM and the TGI (HCT-15 colon) was > 100 µM. It also gave a GI50 (HL-60(TB) leukemia) of 12 µM, a TGI (HL-60(TB) leukemia) of 25.7 µM and a GI50 (HOP-62 NSCLC) of 19.3 µM. It also gave a TGI (HOP-62 NSCLC) of 35.7 µM, a GI50 (HOP-92 NSCLC) of 12.3 µM and a TGI (HOP-92 NSCLC) of 27.6 µM. For the same molecule, the GI50 (HS 578T breast) was 40.6 µM, the TGI (HS 578T breast) was > 100 µM and the GI50 (HT29 colon) was 17.1 µM. For the same molecule, the TGI (HT29 colon) was 30.8 µM, the GI50 (IGROV1 ovarian) was 48.6 µM and the TGI (IGROV1 ovarian) was > 100 µM. For the same molecule, the GI50 (K-562 leukemia) was 15.5 µM, the TGI (K-562 leukemia) was 28.8 µM and the GI50 (KM12 colon) was 31.3 µM. The TGI (KM12 colon) was > 100 µM, the GI50 (LOX IMVI melanoma) was 15.9 µM and the TGI (LOX IMVI melanoma) was 30.9 µM. The GI50 (M14 melanoma) was 26.8 µM, the TGI (M14 melanoma) was 58.2 µM and the GI50 (MALME-3M melanoma) was 19 µM. It also gave a TGI (MALME-3M melanoma) of 38.2 µM, a GI50 (MCF7 breast) of 17.2 µM and a TGI (MCF7 breast) of 31 µM. The GI50 (MDA-MB-231 breast) was 20.7 µM, the TGI (MDA-MB-231 breast) was 42.7 µM and the GI50 (MDA-MB-435) was 36 µM. The TGI (MDA-MB-435) was > 100 µM, the GI50 (MOLT-4 leukemia) was 5.94 µM and the TGI (MOLT-4 leukemia) was 42.8 µM. For the same molecule, the GI50 (NCI-H226 lung) was 41.3 µM, the TGI (NCI-H226 lung) was > 100 µM and the GI50 (NCI-H23 lung) was 14.4 µM. It also gave a TGI (NCI-H23 lung) of 34.9 µM, a GI50 (NCI-H460 lung) of 17.5 µM and a TGI (NCI-H460 lung) of 38.1 µM. It also gave a GI50 (NCI-H522 lung) of 26 µM, a TGI (NCI-H522 lung) of 96.3 µM and a GI50 (NCI/ADR-RES ovarian) of 18.2 µM. The TGI (NCI/ADR-RES ovarian) was 49.4 µM, the GI50 (OVCAR-3 ovarian) was 19.8 µM and the TGI (OVCAR-3 ovarian) was 45.9 µM. It also gave a GI50 (OVCAR-4 ovarian) of 23 µM, a TGI (OVCAR-4 ovarian) of 57 µM and a GI50 (OVCAR-5 ovarian) of 18 µM. The TGI (OVCAR-5 ovarian) was 39.9 µM, the GI50 (OVCAR-8 ovarian) was 35 µM and the TGI (OVCAR-8 ovarian) was > 100 µM. The GI50 (RPMI-8226 leukemia) was 14.3 µM, the TGI (RPMI-8226 leukemia) was 27.3 µM and the GI50 (RXF 393 renal) was 32.5 µM. It also gave a TGI (RXF 393 renal) of 86.6 µM, a GI50 (SF-268 CNS) of 22.7 µM and a TGI (SF-268 CNS) of 51.9 µM. For the same molecule, the GI50 (SF-295 CNS) was 22.3 µM, the TGI (SF-295 CNS) was 45.3 µM and the GI50 (SF-539 CNS) was 18.5 µM. It also gave a TGI (SF-539 CNS) of 36.7 µM, a GI50 (SK-MEL-2 melanoma) of 20.4 µM and a TGI (SK-MEL-2 melanoma) of 52.3 µM. It also gave a GI50 (SK-MEL-28 melanoma) of 20.6 µM, a TGI (SK-MEL-28 melanoma) of 38.1 µM and a GI50 (SK-MEL-5 melanoma) of 31 µM. The TGI (SK-MEL-5 melanoma) was > 100 µM, the GI50 (SK-OV-3 ovarian) was 21.9 µM and the TGI (SK-OV-3 ovarian) was 40.4 µM. For the same molecule, the GI50 (SN12C renal) was 26 µM, the TGI (SN12C renal) was 62.5 µM and the GI50 (SNB-19 CNS) was 27.8 µM. The TGI (SNB-19 CNS) was 73.1 µM, the GI50 (SNB-75 CNS) was 20.7 µM and the TGI (SNB-75 CNS) was 39.8 µM. It also gave a GI50 (SR leukemia) of 6.04 µM, a TGI (SR leukemia) of 24.1 µM and a GI50 (SW-620 colon) of 27.4 µM. For the same molecule, the TGI (SW-620 colon) was > 100 µM, the GI50 (T-47D breast) was 21 µM and the TGI (T-47D breast) was 46.4 µM. For the same molecule, the GI50 (TK-10 renal) was 23 µM, the TGI (TK-10 renal) was 41.1 µM and the GI50 (U251 CNS) was 20.8 µM. The TGI (U251 CNS) was 44.9 µM, the GI50 (UACC-257 melanoma) was 41.3 µM and the TGI (UACC-257 melanoma) was > 100 µM. For the same molecule, the GI50 (UACC-62 melanoma) was 18.7 µM, the TGI (UACC-62 melanoma) was 36.5 µM and the GI50 (UO-31 renal) was 24.6 µM. The TGI (UO-31 renal) was 73.7 µM.
